What was measured:
[1] = organism: Mus musculus; assay: The compound was evaluated for the percentage of pentagastrin control in the isolated mouse stomach assay; assay type: functional
[2] = organism: Mus musculus; assay: Evaluated for the Log A50 value in the isolated mouse stomach assay; assay type: functional

| Structure (SMILES) | Control [1] [%] | Log A50 [2] |
| --- | --- | --- |
| NC(=O)C(Cc1ccccc1)NC(=O)[C@H](CC(=O)O)NS(=O)(=O)c1ccc2ccccc2c1 (stereo partly specified) | 96 | -5.6 |
| Cc1ccc(S2(=O)=N[C@H](C(=O)NC(Cc3ccccc3)C(N)=O)CC(=O)O2)cc1 (stereo partly specified) | 56 | -5.3 |
| NC(=O)C(Cc1ccccc1)NC(=O)[C@@H]1CC(=O)OS(=O)(c2ccc3ccccc3c2)=N1 (stereo partly specified) | 67 | -8.1 |
